Tests used:
Type in all cases: in vivo
[1] = system: barnyardgrass (Echinochloa crus-galli); assay: Test A postemergence application, visual injury rating 0-100
Method in brief: (§1)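 Compound in a non-phytotoxic, surfactant-containing solvent is applied either as a directed soil spray before seedlings emerge or onto emerged plants 2-10 cm tall; pots hold a loam-sand blend. Plants grow 10 days under greenhouse conditions and are rated by eye against untreated controls (0 no effect, 100 complete control).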

[2] = system: horseweed (Erigeron canadensis); assay: as above
Method in brief: as §1

[3] = system: blackgrass (Alopecurus myosuroides); assay: as above
Method in brief: as §1

corn (Zea mays) [4] = assay: as above
Method in brief: as §1

[5] = system: ryegrass, Italian (italian ryegrass, Lolium multiflorum); assay: as above
Method in brief: as §1

[6] = system: palmer (palmer amaranth, palmer pigweed, Amaranthus palmeri); assay: as above
Method in brief: as §1

soybean (Glycine max) [7] = assay: as above
Method in brief: as §1

[8] = system: green foxtail (Setaria viridis); assay: as above
Method in brief: as §1

[9] = system: wheat (Triticum aestivum); assay: as above
Method in brief: as §1

[10] = system: oat, wild (wild oat, Avena fatua); assay: as above
Method in brief: as §1

[11] = system: ragweed (common ragweed, Ambrosia artemisiifolia); assay: as above
Method in brief: as §1

kochia (Bassia scoparia) [12] = assay: as above
Method in brief: as §1

[13] = system: galium (catchweed bedstraw, Galium aparine); assay: as above
Method in brief: as §1

[14] = system: sedge, umbrella (small-flower umbrella sedge, Cyperus difformis); assay: Test B flooded paddy test, visual plant response rating 0-100; details: 250 g ai/ha, Flood, applied to paddy water, evaluated after 13 days
Method in brief: (§2)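 Greenhouse, 13 d. Seedlings at 2-leaf stage, pots flooded to 3 cm, compound delivered into floodwater, water level held constant. Evaluated visually relative to controls.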

rice (Oryza sativa) = assay: as above; details: 250 g ai/ha, Flood, applied to paddy water, evaluated after 13 days
Method in brief: as §2

[15] = system: ducksalad (Heteranthera limosa); assay: as above; details: 250 g ai/ha, Flood, applied to paddy water, evaluated after 13 days
Method in brief: as §2

[16] = system: barnyardgrass (Echinochloa crusgalli); assay: as above; details: 250 g ai/ha, Flood, applied to paddy water, evaluated after 13 days
Method in brief: as §2

[17] = system: barnyardgrass (Echinochloa crus-galli); assay: Test A preemergence soil spray, visual injury rating 0-100; details: 10 days
Method in brief: as §1

[18] = system: blackgrass (Alopecurus myosuroides); assay: as above; details: 10 days
Method in brief: as §1

corn (Zea mays) [19] = assay: as above; details: 10 days
Method in brief: as §1

[20] = system: ryegrass, Italian (italian ryegrass, Lolium multiflorum); assay: as above; details: 10 days
Method in brief: as §1

[21] = system: palmer (palmer amaranth, palmer pigweed, Amaranthus palmeri); assay: as above; details: 10 days
Method in brief: as §1

soybean (Glycine max) [22] = assay: as above; details: 10 days
Method in brief: as §1

[23] = system: green foxtail (Setaria viridis); assay: as above; details: 10 days
Method in brief: as §1

[24] = system: wheat (Triticum aestivum); assay: as above; details: 10 days
Method in brief: as §1

[25] = system: oat, wild (wild oat, Avena fatua); assay: as above; details: 10 days
Method in brief: as §1

[26] = system: ragweed (common ragweed, Ambrosia artemisiifolia); assay: as above; details: 10 days
Method in brief: as §1

kochia (Bassia scoparia) [27] = assay: as above; details: 10 days
Method in brief: as §1

[28] = 62 g ai/ha, postemergence, 10 days, 0 = no effect, 100 = complete control
[29] = Postemergence, 16 g ai/ha, greenhouse 10 days, 0 no effect, 100 complete control
[30] = 62 g ai/ha, 0 = no effect, 100 = complete control

## CC1(C(=O)NC2CC=C(C(=O)NS(C)(=O)=O)C2)CN(c2cc(F)cc(F)c2)C(=O)O1 (racemic) [Compound 103]
[1]; [28]
  Barnyardgrass plant response rating (0-100): 100
[1]; [29]
  Barnyardgrass plant response rating (0 to 100 scale): 50
[2]; [28]
  Horseweed plant response rating (0-100): 0
[2]; [29]
  Horseweed plant response rating (0 to 100 scale): 0
[3]; [28]
  Blackgrass plant response rating (0-100): 40
[3]; [29]
  Blackgrass plant response rating (0 to 100 scale): 0
Corn (Zea mays) [4]; [28]
  Corn plant response rating (0-100): 80
Corn (Zea mays) [4]; [29]
  Corn plant response rating (0 to 100 scale): 10
[5]; [28]
  Ryegrass, Italian plant response rating (0-100): 30
[5]; [29]
  Ryegrass, Italian plant response rating (0 to 100 scale): 0
[6]; [28]
  Pigweed, Palmer plant response rating (0-100): 70
[6]; [29]
  Pigweed, Palmer plant response rating (0 to 100 scale): 60
Soybean (Glycine max) [7]; [28]
  Soybean plant response rating (0-100): 40
Soybean (Glycine max) [7]; [29]
  Soybean plant response rating (0 to 100 scale): 10
[8]; [28]
  Foxtail, Green plant response rating (0-100): 90
[8]; [29]
  Foxtail, Green plant response rating (0 to 100 scale): 0
[9]; [28]
  Wheat plant response rating (0-100): 70
[9]; [29]
  Wheat plant response rating (0 to 100 scale): 20
[10]; [28]
  Oat, Wild plant response rating (0-100): 20
[10]; [29]
  Oat, Wild plant response rating (0 to 100 scale): 0
[11]; [28]
  Ragweed plant response rating (0-100): 30
[11]; [29]
  Ragweed plant response rating (0 to 100 scale): 10
Kochia (Bassia scoparia) [12]; [28]
  Kochia plant response rating (0-100): 80
Kochia (Bassia scoparia) [12]; [29]
  Kochia plant response rating (0 to 100 scale): 20
[13]; [28]
  Galium plant response rating (0-100): 60
[13]; [29]
  Galium plant response rating (0 to 100 scale): 10
[14]
  Plant response rating, Sedge, Umbrella (0 to 100 scale, 0 is no effect and 100 is complete control): 0
Rice (Oryza sativa)
  Plant response rating, Rice (0 to 100 scale, 0 is no effect and 100 is complete control): 0
[15]
  Plant response rating, Ducksalad (0 to 100 scale, 0 is no effect and 100 is complete control): 0
[16]
  Plant response rating, Barnyardgrass (0 to 100 scale, 0 is no effect and 100 is complete control): 0
[17]; 16 g ai/ha, 0 to 100 scale
  Barnyardgrass plant response rating: 0
[17]; [30]
  Barnyardgrass plant response rating (0-100): 10
[18]; 16 g ai/ha, 0 to 100 scale
  Blackgrass plant response rating: 0
[18]; [30]
  Blackgrass plant response rating (0-100): 0
Corn (Zea mays) [19]; 16 g ai/ha, 0 to 100 scale
  Corn plant response rating: 0
Corn (Zea mays) [19]; [30]
  Corn plant response rating (0-100): 10
[20]; 16 g ai/ha, 0 to 100 scale
  Ryegrass, Italian plant response rating: 0
[20]; [30]
  Ryegrass, Italian plant response rating (0-100): 40
[21]; 16 g ai/ha, 0 to 100 scale
  Pigweed, Palmer plant response rating: 0
[21]; [30]
  Pigweed, Palmer plant response rating (0-100): 80
Soybean (Glycine max) [22]; 16 g ai/ha, 0 to 100 scale
  Soybean plant response rating: 20
Soybean (Glycine max) [22]; [30]
  Soybean plant response rating (0-100): 20
[23]; 16 g ai/ha, 0 to 100 scale
  Foxtail, Green plant response rating: 20
[23]; [30]
  Foxtail, Green plant response rating (0-100): 40
[24]; 16 g ai/ha, 0 to 100 scale
  Wheat plant response rating: 0
[24]; [30]
  Wheat plant response rating (0-100): 60
[25]; 16 g ai/ha, 0 to 100 scale
  Oat, Wild plant response rating: 0
[25]; [30]
  Oat, Wild plant response rating (0-100): 0
[26]; 16 g ai/ha, 0 to 100 scale
  Ragweed plant response rating: 0
[26]; [30]
  Ragweed plant response rating (0-100): 0
Kochia (Bassia scoparia) [27]; 16 g ai/ha, 0 to 100 scale
  Kochia plant response rating: 0
Kochia (Bassia scoparia) [27]; [30]
  Kochia plant response rating (0-100): 50
